{
  "source": "paper PMC5077990",
  "about": "“P53 activation inhibits all types of hematopoietic progenitors and all stages of megakaryopoiesis” (Oncotarget, 2016)",
  "key": {"[1]": {"system": "Day 8-erythroblasts", "assay": "Apoptosis of erythroblasts, Annexin V flow cytometry", "type": "cell-based, human", "details": "48 hour treatment, as low as 0.5 μM", "quoted_text": "For that purpose, CD34^+ progenitors were cultured in serum-free medium with SCF and EPO for 8 days. […] Day 8-erythroblasts were treated with various doses of SAR405838 or MI-219 for 48 hours. The viable cells were counted by Trypan blue exclusion and the apoptotic cells were quantified by flow cytometry analysis using annexin V/ propidium iodide labeling.\n(§1) B. Day 8-erythroblasts were treated with various doses of MI-219 or SAR405838 for 48 hours and counted by trypan blue exclusion. C. Day 8-erythroblasts were treated with various doses of MI-219 or SAR405838 for 48 hours and apoptotic cells were analyzed by flow cytometry using Annexin V assay. The results represent the mean of 3 independent experiments. * represents statistical significance (*P<0.05; **P<0.01; ***P<0.001).\nApoptosis was measured by Annexin V-FITC detection kit (BD Pharmigen, San Diego, CA) and analyzed by flow cytometry on a LSRII (Becton Dickinson Mountain View, CA)."}, "[2]": {"system": "Day 8-erythroblasts", "assay": "Viable erythroblasts counted by Trypan blue exclusion", "type": "cell-based", "details": "Homo sapiens, day 8-erythroblasts treated 48 hours, read-out: IC50, decrease in viable cells", "quoted_text": "Day 8-erythroblasts were treated with various doses of SAR405838 or MI-219 for 48 hours. The viable cells were counted by Trypan blue exclusion and the apoptotic cells were quantified by flow cytometry analysis using annexin V/ propidium iodide labeling.\nas §1"}, "[3]": {"design": "method as in PMID 25145672", "details": "cited from earlier work"}, "[4]": {"system": "day 10-MKs (proplatelet formation)", "assay": "Proplatelet formation assay", "type": "cell-based, human", "method": "Then, we explored the effects of p53 stabilization on PPT formation (the step before platelet release). […] To confirm that this was due to p53 stabilization, we knocked-down p53 with 2 shRNA showing a decrease in P53 RNA and protein levels (Figure 7B/7C) and reduced expression of p53 targets (Figure 7D).\nFigure 7 Effects of p53 stabilization on PPT formation A. Percentage of proplatelet-forming day 10-MKs after incubation with 0.5 or 1 μM of SAR405838 or MI-219. […] A total of 200 cells per well were counted during 4 days. Error bars in histograms represent the SD of one representative experiment performed in triplicate wells. Similar results were obtained in 3 repeated experiments. * represents statistical significance (**P<0.01). […] D. p53, MDM2, BCL-XL, BAX and p21 protein levels were analyzed in GFP^+/CD41^+ sorted cells by Western blot (at days 10 and 13 of culture). β-actin was used as loading control. […] A total of 200 cells per well were counted during 4 days (from day 11 to day 14). […]\nCD41^+GFP^+ MKs were sorted at day 8 of culture and plated in 96-well plates at a concentration of 2,000 cells/well in serum-free medium containing TPO, and quantification of PPT bearing MKs was performed as previously described. […] A total of 200 cells per well were counted during 4 days. […]"}, "[5]": {"system": "BFU-E (Burst Forming Unit-Erythroid) progenitors from CD34+ cells", "assay": "Colony assay in methylcellulose, BFU-E", "type": "cell-based, human", "details": "for IC50: Homo sapiens", "method": "CD34^+cells were obtained from leukapheresis samples after mobilization of donors after informed consent in agreement with our Institute Ethic Committee (Assistance Publique des Hôpitaux de Paris) and in accordance with the Declaration of Helsinki. CD34^+cells were isolated by a positive selection using an immunomagnetic cell sorting system (AutoMacs; Miltenyi Biotec, Bergisch Gladbach, Germany). 500 to 1000 normal CD34^+cells were plated either in 1% methylcellulose assay (StemCells technologies, Vancouver, Canada) to quantify erythroid (BFU-E) and granulo-monocytic (CFU-GM) progenitors or in serum-free fibrin clot assay for quantification of MK progenitors (CFU-MK) in the absence or presence of various concentration of SAR405838 or MI-219. Cultures in methylcellulose were stimulated by addition of human recombinant growth factors: G-CSF (20 ng/mL), IL-3 (10 ng/mL) SCF (25 ng/mL, Biovitrum AB, Stockholm, Sweden), IL-6 (10 ng/mL), FLT3 (10 ng/mL) and human EPO (1 U/mL). Cultures in fibrin clot were stimulated with 10 ng/mL TPO (Kirin Brewery, Tokyo, Japan) and 25 ng/mL SCF. BFU-E and CFU-GM colonies were enumerated at day 14 of culture. CFU-MK colonies were enumerated at day 12 after labeling by an indirect immuno-alkaline phosphatase staining technique using an anti-CD41a monoclonal antibody (MoAb; Becton Dickinson, le Pont de Claix, France; clone HIP8), as previously described."}, "[6]": {"system": "p53 in day 8-erythroblasts", "assay": "p53 expression by western-blot in day 8-erythroblasts", "details": "Homo sapiens, 192 h, read-out: p53 fold induction (western-blot)", "quoted_text": "For that purpose, CD34^+ progenitors were cultured in serum-free medium with SCF and EPO for 8 days. SAR405838- or MI-219-treated erythroblasts were analyzed for p53 expression by western-blot. […] Day 8-erythroblasts were treated with various doses of SAR405838 or MI-219 for 48 hours.\nFigure 4 Effect of SAR405838 on erythroid differentiation A. Day 8-erythroblasts treated with MI-219 or SAR405838 were analyzed for p53 expression by western-blot. β-actin was used as loading control.\nExpression levels were performed by western-blot analysis using mouse anti-p53 and anti-β-actin (Sigma-Aldrich), anti-bax (Oncogene), anti-p21 (Beckton Dickenson), anti-Mdm2 (BD Pharmingen), anti-BCL-XL, and rat anti-HSC70 (Stressgen). Proteins were quantified by Image J software."}, "[7]": {"system": "Day 6 megakaryoblasts (ploidization)", "assay": "MK ploidy by flow cytometry (CD41/CD42/vital Hoechst staining)", "type": "cell-based, human", "details": "day 6 megakaryoblasts treated 72 hours, analysed day 9; SAR405838 at 1 μM; untreated control 4.4 N", "method": "First, we investigated if MDM2 inhibitors affect MK ploidization. SAR405838 induced a significant reduction in the mean ploidy (3.0 N at the dose of 1 μM versus 4.4 N for untreated control or for MI-219 treatment) (Supplementary Figure S1). page 1: P53 activation inhibits all types of hematopoietic progenitors and all stages of megakaryopoiesis SUPPLEMENTARY FIGURE Supplementary Figure S1: Effect of SAR405838 on polyploidization. Day 6 megakaryoblasts were treated for 72 hours with various doses of MI-219 or SAR405838. At day 9, ploidy was analyzed by flow cytometry using a CD41/CD42/vital Hoechst staining. N represents the mean ploidy. As shown, SAR405838 induced a significant reduction in the mean ploidy (3.0N at the dose of 1μM versus 4.4N for control or for MI-219 treatment). The Figure illustrates a representative experiment in triplicate. Two other experiments in triplicate gave similar results. […]"}},
  "note": "“Also recorded” adds a separate entry of the source. Read-outs that look alike come from different tables or passages of the source.",
  "data": [
    {"molecule": "CC(C)(C)C[C@@H]1N[C@@H](C(=O)N[C@H]2CC[C@H](O)CC2)[C@H](c2cccc(Cl)c2F)[C@]12C(=O)Nc1cc(Cl)ccc12", "note": "[SAR405838]", "values": [
      {"measurement": "apoptotic cells (annexin V/propidium iodide)", "setting": "[1]", "value": "increased in a dose-dependent manner"},
      {"measurement": "IC50", "setting": "[2]", "value": 0.5, "unit": "µM"},
      {"measurement": "hematopoietic toxicity", "setting": "[3]", "value": "reversible thrombocytopenia"},
      {"measurement": "PPT (proplatelet) formation", "setting": "[4]; 0.5 μM", "value": "inhibited; also recorded: drastically decreased"},
      {"measurement": "PPT (proplatelet) formation", "setting": "[4]; 1 μM", "value": "completely abrogated; also recorded: completely abolished"},
      {"measurement": "IC50", "setting": "[5]; 72 h, CD34+ cells treated 3 days, washed, then plated in colony assay, read-out: IC50, reduction of BFU-E progenitors", "value": "~2", "unit": "µM"},
      {"measurement": "IC50", "setting": "[5]; CD34+ cells seeded in methylcellulose in the presence of compound, compared to untreated control, read-out: dose inducing a 50% reduction of BFU-E numbers", "value": "0.5 to 1", "unit": "µM"},
      {"measurement": "higher sensitivity of CD34+CD38- progenitors than CD34+CD38+ progenitors (BFU-E)", "setting": "[5]; sorted CD34+CD38- immature vs CD34+CD38+ committed cells", "value": 2, "unit": "fold"},
      {"measurement": "fold induction at 2 µM", "setting": "[6]", "value": 4.8},
      {"measurement": "fold induction at 4 µM", "setting": "[6]", "value": 4.5},
      {"measurement": "mean ploidy", "setting": "[7]", "value": 3.0, "unit": "N"}
    ]}
  ]
}
